Assay results: ChEMBL document CHEMBL4024706 (Eur J Med Chem, 2017)

Columns and labels:
[1] = target: Phosphatidylinositol 4,5-bisphosphate 3-kinase catalytic subunit gamma isoform (Homo sapiens) (UniProt P48736); assay: Inhibition of wild-type human partial length PIK3CG (S144 to A1102 residues) expressed in mammalian expression system assessed as residual activity at 1 uM by Kinomescan method relative to control
[2] = target: Serine/threonine-protein kinase TBK1 (Homo sapiens) (UniProt Q9UHD2); assay: Inhibition of wild-type human full length TBK1 (M1 to L729 residues) expressed in mammalian expression system assessed as residual activity at 1 uM by Kinomescan method relative to control
[3] = target: Serine/threonine-protein kinase/endoribonuclease IRE1 (Homo sapiens) (UniProt O75460); assay: Inhibition of wild-type human partial length ERN1 (S551 to E852 residues) expressed in mammalian expression system assessed as residual activity at 1 uM by Kinomescan method relative to control
[4] = tested on: SU-DHL-2; assay: Growth inhibition of human SU-DHL-2 cells; type: functional; conditions: Homo sapiens, SU-DHL-2
[5] = target: Testis-specific serine/threonine-protein kinase 1 (Homo sapiens) (UniProt Q9BXA7); assay: Inhibition of wild-type human full length TSSK1B (M1 to Q367 residues) expressed in bacterial expression system assessed as residual activity at 1 uM by Kinomescan method relative to control
[6] = tested on: Phosphatidylinositol 4,5-bisphosphate 3-kinase catalytic subunit alpha isoform (Homo sapiens), P42336 [E545K]; assay: Inhibition of human partial length PIK3CA E545K mutant (R108 to N1068 residues) expressed in mammalian expression system assessed as residual activity at 1 uM by Kinomescan method relative to control
[7] = target: Serine/threonine-protein kinase Nek10 (Homo sapiens) (UniProt Q6ZWH5); assay: Inhibition of wild-type human partial length NEK10 (L488 to R809 residues) expressed in mammalian expression system assessed as residual activity at 1 uM by Kinomescan method relative to control
[8] = target: Dual specificity mitogen-activated protein kinase kinase 1 (Homo sapiens) (UniProt Q02750); assay: Inhibition of wild-type human full length MEK1 (M1 to V393 residues) expressed in mammalian expression system assessed as residual activity at 1 uM by Kinomescan method relative to control
[9] = target: Dual serine/threonine and tyrosine protein kinase (Homo sapiens) (UniProt Q6XUX3); assay: Inhibition of wild-type human full length RIPK5 (M1 to T929 residues) expressed in mammalian expression system assessed as residual activity at 1 uM by Kinomescan method relative to control
Dual serine/threonine and tyrosine protein kinase (Homo sapiens), sequence (Q6XUX3 whole entry, the tested form may be a part): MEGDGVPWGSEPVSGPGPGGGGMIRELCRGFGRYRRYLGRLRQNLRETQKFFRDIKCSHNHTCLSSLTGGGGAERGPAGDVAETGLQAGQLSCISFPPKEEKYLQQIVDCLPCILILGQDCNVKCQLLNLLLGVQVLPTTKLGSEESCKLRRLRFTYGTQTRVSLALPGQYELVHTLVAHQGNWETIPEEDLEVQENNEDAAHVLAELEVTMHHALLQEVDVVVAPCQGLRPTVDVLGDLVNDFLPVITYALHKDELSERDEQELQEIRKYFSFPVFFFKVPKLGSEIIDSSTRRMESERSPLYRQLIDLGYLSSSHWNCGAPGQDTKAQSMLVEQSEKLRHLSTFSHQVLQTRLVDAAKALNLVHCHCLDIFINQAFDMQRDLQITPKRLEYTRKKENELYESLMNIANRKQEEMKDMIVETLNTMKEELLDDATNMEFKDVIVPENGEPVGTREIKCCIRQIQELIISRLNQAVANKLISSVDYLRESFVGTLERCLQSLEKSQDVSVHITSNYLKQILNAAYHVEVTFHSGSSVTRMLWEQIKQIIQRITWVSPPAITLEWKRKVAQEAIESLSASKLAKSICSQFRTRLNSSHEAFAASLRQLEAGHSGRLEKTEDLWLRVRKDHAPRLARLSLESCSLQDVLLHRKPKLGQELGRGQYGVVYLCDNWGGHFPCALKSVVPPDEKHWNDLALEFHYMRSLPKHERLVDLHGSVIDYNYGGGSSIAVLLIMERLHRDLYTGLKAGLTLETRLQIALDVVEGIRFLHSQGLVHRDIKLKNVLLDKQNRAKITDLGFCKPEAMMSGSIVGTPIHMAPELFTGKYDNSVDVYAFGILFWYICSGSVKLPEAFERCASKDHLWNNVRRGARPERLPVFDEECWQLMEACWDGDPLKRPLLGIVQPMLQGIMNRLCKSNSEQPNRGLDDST

[10] = target: Serine/threonine-protein kinase MARK2 (Homo sapiens) (UniProt Q7KZI7); assay: Inhibition of wild-type human partial length MARK2 (M1 to R450 residues) expressed in bacterial expression system assessed as residual activity at 1 uM by Kinomescan method relative to control
Serine/threonine-protein kinase MARK2 (Homo sapiens), sequence (Q7KZI7 whole entry, the tested form may be a part): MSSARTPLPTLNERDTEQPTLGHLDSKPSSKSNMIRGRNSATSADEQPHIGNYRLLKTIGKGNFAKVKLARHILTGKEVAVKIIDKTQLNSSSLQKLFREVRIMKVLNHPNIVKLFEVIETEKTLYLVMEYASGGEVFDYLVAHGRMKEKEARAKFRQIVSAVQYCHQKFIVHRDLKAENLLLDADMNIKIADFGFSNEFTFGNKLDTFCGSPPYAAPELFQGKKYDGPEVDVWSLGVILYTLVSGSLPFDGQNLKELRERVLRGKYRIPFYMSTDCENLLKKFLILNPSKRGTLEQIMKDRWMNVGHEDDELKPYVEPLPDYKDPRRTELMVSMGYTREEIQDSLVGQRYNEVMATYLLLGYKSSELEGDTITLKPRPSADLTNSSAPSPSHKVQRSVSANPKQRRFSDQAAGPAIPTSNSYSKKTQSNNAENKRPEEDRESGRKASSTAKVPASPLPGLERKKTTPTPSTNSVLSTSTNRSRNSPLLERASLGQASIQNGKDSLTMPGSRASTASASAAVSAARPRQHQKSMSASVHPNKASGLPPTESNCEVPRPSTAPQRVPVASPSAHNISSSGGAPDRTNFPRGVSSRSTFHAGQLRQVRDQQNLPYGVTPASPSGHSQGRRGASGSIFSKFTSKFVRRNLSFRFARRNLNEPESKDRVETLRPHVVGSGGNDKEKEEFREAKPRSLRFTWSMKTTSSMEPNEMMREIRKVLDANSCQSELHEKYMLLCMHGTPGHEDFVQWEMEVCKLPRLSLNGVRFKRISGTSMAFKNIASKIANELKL

[11] = target: Mitogen-activated protein kinase kinase kinase 10 (Homo sapiens) (UniProt Q02779); assay: Inhibition of wild-type human partial length MLK2 (V52 to W380 residues) expressed in bacterial expression system assessed as residual activity at 1 uM by Kinomescan method relative to control
Mitogen-activated protein kinase kinase kinase 10 (Homo sapiens), sequence (Q02779 whole entry, looked up, the tested form may be a part): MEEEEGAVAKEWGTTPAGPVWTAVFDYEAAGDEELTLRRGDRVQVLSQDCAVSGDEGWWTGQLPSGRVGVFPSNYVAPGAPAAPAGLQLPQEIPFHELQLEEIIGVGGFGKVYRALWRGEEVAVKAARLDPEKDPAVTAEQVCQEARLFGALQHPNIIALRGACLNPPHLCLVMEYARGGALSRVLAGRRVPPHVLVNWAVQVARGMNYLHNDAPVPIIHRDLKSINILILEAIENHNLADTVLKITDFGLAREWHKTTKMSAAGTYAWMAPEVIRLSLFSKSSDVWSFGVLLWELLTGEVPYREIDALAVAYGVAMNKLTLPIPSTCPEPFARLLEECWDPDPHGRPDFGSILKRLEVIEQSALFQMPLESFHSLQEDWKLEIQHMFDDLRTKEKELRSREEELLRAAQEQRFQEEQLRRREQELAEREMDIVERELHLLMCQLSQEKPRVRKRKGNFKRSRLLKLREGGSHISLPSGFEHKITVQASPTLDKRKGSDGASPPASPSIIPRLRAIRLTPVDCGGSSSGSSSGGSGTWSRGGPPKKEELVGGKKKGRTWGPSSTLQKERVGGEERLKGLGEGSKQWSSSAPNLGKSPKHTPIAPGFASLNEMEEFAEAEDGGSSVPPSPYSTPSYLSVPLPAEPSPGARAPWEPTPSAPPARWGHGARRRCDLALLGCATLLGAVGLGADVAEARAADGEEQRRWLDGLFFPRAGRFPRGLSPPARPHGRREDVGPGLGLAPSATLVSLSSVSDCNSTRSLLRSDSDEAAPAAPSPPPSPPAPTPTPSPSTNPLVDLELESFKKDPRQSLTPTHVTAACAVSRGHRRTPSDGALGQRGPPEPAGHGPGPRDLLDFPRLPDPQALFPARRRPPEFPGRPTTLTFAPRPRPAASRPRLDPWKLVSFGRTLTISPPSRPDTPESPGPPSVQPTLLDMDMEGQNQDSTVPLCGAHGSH

[12] = target: Serine/threonine-protein kinase TAO1 (Homo sapiens) (UniProt Q7L7X3); assay: Inhibition of wild-type human partial length TAOK1 (M1 to A320 residues) expressed in mammalian expression system assessed as residual activity at 1 uM by Kinomescan method relative to control
[13] = target: Fibroblast growth factor receptor 1 (Homo sapiens) (UniProt P11362); assay: Inhibition of wild-type human partial length FGFR1 (P357 to V669 residues) expressed in bacterial expression system assessed as residual activity at 1 uM by Kinomescan method relative to control
[14] = target: Muscle, skeletal receptor tyrosine-protein kinase (Homo sapiens) (UniProt O15146); assay: Inhibition of wild-type human partial length MUSK (M553 to V869 residues) expressed in bacterial expression system assessed as residual activity at 1 uM by Kinomescan method relative to control
[15] = tested on: Pfeiffer; assay: Growth inhibition of human Pfeiffer cells; type: functional; conditions: Homo sapiens, Pfeiffer
[16] = target: Tyrosine-protein kinase JAK2 (Homo sapiens) (UniProt O60674); assay: Inhibition of wild-type human partial length JAK2 JH1 catalytic domain (A829 to G1132 residues) expressed in mammalian expression system assessed as residual activity at 1 uM by Kinomescan method relative to control
[17] = target: Activin receptor type-2B (Homo sapiens) (UniProt Q13705); assay: Inhibition of wild-type human ACVR2B (H169 to D504 residues) expressed in bacterial expression system assessed as residual activity at 1 uM by Kinomescan method relative to control
[18] = tested on: Tyrosine-protein kinase ABL1 (Homo sapiens), P00519 [T315I]; assay: Inhibition of human phosphorylated ABL1 T315I mutant (S229 to K512 residues) expressed in mammalian expression system assessed as residual activity at 1 uM by Kinomescan method relative to control
[19] = target: Serine/threonine-protein kinase WNK3 (Homo sapiens) (UniProt Q9BYP7); assay: Inhibition of wild-type human partial length WNK3 (M1 to D434 residues) expressed in mammalian expression system assessed as residual activity at 1 uM by Kinomescan method relative to control
[20] = target: Dual specificity protein kinase CLK3 (Homo sapiens) (UniProt P49761); assay: Inhibition of wild-type human full length CLK3 (M1 to R490 residues) expressed in bacterial expression system assessed as residual activity at 1 uM by Kinomescan method relative to control
[21] = target: LIM domain kinase 2 (Homo sapiens) (UniProt P53671); assay: Inhibition of wild-type human full length LIMK2 (M1 to P638 residues) expressed in bacterial expression system assessed as residual activity at 1 uM by Kinomescan method relative to control
[22] = target: Calcium/calmodulin-dependent protein kinase type 1D (Homo sapiens) (UniProt Q8IU85); assay: Inhibition of wild-type human partial length CAMK1D (M1 to K299 residues) expressed in bacterial expression system assessed as residual activity at 1 uM by Kinomescan method relative to control
[23] = target: Ephrin type-B receptor 2 (Homo sapiens) (UniProt P29323); assay: Inhibition of wild-type human partial length EPHB2 (I597 to L902 residues) expressed in bacterial expression system assessed as residual activity at 1 uM by Kinomescan method relative to control
[24] = target: cAMP-dependent protein kinase catalytic subunit beta (Homo sapiens) (UniProt P22694); assay: Inhibition of wild-type human full length PKAC-beta (M1 to F351 residues) expressed in bacterial expression system assessed as residual activity at 1 uM by Kinomescan method relative to control
[25] = target: Proto-oncogene tyrosine-protein kinase receptor Ret (Homo sapiens) (UniProt P07949); assay: Inhibition of wild-type human partial length RET (E713 to D1014 residues) expressed in bacterial expression system assessed as residual activity at 1 uM by Kinomescan method relative to control
Proto-oncogene tyrosine-protein kinase receptor Ret (Homo sapiens), sequence (P07949 whole entry, the tested form may be a part): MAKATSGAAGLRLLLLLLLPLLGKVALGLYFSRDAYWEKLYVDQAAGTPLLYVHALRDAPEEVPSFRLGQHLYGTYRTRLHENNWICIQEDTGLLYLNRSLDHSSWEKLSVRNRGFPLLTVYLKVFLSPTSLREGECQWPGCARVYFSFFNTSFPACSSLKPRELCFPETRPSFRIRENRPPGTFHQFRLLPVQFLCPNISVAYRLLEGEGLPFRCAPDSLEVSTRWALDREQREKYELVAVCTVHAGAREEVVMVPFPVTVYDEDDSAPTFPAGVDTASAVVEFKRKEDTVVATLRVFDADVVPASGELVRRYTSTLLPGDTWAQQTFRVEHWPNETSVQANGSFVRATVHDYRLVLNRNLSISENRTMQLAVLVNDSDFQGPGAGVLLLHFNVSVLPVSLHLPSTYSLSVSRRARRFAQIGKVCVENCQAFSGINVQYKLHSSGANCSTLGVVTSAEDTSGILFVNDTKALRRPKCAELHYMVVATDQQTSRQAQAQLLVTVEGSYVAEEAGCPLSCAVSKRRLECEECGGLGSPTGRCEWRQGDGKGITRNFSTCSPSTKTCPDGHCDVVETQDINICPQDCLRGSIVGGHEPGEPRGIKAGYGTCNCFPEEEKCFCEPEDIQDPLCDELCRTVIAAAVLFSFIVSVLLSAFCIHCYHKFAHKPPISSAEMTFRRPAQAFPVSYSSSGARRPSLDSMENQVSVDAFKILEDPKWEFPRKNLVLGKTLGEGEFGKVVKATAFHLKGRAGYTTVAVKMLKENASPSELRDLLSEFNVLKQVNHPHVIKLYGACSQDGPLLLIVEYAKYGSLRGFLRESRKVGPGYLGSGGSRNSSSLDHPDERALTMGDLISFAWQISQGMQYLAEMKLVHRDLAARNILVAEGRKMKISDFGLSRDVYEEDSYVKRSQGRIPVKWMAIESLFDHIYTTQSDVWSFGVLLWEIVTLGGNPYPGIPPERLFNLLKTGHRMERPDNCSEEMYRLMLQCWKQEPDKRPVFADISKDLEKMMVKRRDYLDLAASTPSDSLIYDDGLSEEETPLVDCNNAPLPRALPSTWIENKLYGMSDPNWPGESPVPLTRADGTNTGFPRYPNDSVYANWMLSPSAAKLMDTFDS

[26] = target: Calcium/calmodulin-dependent protein kinase kinase 2 (Homo sapiens) (UniProt Q96RR4); assay: Inhibition of wild-type human partial length CAMKK2 (D65 to V471 residues) expressed in bacterial expression system assessed as residual activity at 1 uM by Kinomescan method relative to control

Phosphatidylinositol 4,5-bisphosphate 3-kinase catalytic subunit gamma isoform (Homo sapiens), sequence (P48736 whole entry, looked up, the tested form may be a part, canonical isoform): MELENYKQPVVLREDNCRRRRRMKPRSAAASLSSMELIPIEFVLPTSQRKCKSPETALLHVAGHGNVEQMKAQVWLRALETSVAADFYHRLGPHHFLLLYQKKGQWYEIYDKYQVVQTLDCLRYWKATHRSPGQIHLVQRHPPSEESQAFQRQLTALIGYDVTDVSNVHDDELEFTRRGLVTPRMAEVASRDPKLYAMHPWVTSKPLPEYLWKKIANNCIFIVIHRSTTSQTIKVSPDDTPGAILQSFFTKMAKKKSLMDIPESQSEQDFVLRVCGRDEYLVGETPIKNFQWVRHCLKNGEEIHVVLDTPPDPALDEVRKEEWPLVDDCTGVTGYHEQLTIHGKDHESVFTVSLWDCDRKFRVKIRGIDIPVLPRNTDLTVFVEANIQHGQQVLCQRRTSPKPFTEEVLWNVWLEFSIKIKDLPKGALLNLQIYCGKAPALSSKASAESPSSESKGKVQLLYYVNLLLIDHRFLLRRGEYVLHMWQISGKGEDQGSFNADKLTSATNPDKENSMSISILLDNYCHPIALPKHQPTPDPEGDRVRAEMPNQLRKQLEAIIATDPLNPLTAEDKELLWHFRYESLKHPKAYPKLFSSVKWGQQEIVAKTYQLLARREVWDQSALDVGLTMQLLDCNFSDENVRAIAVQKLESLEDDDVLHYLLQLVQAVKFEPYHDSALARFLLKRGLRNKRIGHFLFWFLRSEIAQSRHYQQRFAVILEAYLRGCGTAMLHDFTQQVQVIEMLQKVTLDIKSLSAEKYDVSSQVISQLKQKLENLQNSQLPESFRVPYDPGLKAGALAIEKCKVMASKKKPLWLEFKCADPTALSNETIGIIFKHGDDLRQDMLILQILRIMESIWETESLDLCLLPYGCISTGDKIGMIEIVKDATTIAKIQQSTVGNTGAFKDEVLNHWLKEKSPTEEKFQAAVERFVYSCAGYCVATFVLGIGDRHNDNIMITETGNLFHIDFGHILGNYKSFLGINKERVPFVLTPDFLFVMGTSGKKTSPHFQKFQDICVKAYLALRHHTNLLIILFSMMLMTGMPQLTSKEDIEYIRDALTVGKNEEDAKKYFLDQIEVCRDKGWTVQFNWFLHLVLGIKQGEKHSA

## C=CC(=O)Nc1cc(Nc2cc(-c3cccc(NC(=O)c4ccc(C(C)(C)C)cc4)c3C)cn(C)c2=O)ccc1C(=O)N1CCOCC1
[1]
  Activity: 100%
[2]
  Activity: 100%
[3]
  Activity: 100%
[4]
  GI50: 3 µM
[5]
  Activity: 98%
[6]
  Activity: 100%
[7]
  Activity: 92%
[8]
  Activity: 100%
[9]
  Activity: 90%
[10]
  Activity: 99%
[11]
  Activity: 100%
[12]
  Activity: 100%
[13]
  Activity: 94%
[14]
  Activity: 91%
[15]
  GI50: 4.5 µM
[16]
  Activity: 73%
[17]
  Activity: 73%
[18]
  Activity: 93%
[19]
  Activity: 94%
[20]
  Activity: 98%
[21]
  Activity: 100%
[22]
  Activity: 97%
[23]
  Activity: 100%
[24]
  Activity: 96%
[25]
  Activity: 87%
[26]
  Activity: 100%
